Data reported in US20210130362A1, “MEDICAL USE OF COMPOUND III” (Boehringer Ingelheim International GmbH, priority 2017, published 2021).

Tests used:
[1] = Intrinsic dissolution rate of compound III; format: physicochemical; settings: physiologically relevant pH range above pH 4
[2] = system: patients with schizophrenia on stable antipsychotic treatment; experiment: Multinational, randomised, double-blind, placebo-controlled, parallel group clinical trial of compound III, 12 weeks of treatment; format: in vivo, human
Description: Regarding reducing the exacerbations of symptoms characterizing relapse, including suicidality, the clinical trial disclosed below was designed to show the efficacy of compound III in improvement of cognitive impairment in patients with schizophrenia as compared to placebo. All patients were on stable antipsychotic treatment (see Table 8 in FIGS. 6A-6C). The study was a multinational, multicentre, randomised, double-blind, placebo-controlled, parallel group trial.
Compound III (10, 25 and 50 mg) and matching placebo were supplied as film-coated tablets (formulation 1).
In total, 516 patients with schizophrenia on stable antipsychotic treatment (Table 8 in FIGS. 6A-6C) as described below were randomized into this trial. […]
The primary safety endpoints are as follows: • Occurrence of adverse events (AEs)/serious adverse events (including the abnormalities of physical examination, vital signs, electrocardiogram test and laboratory tests) • Occurrence of protocol-specified adverse events of special interest • Dramatic worsening of disease state as assessed by PANSS • Suicidality as assessed by Columbia Suicidal Severity Rating Scale (C-SSRS) […]

[3] = patients with schizophrenia receiving antipsychotic therapy

Compound: O=c1[nH]c(Cc2ccccn2)nc2c1cnn2C1CCOCC1 [compound III]
- intrinsic dissolution rate [1]: low
- psychiatric serious adverse events (SAEs): hospitalization for disease worsening (schizophrenia, psychotic disorder) and suicidality leading to hospitalization ([2]; any arm dosed with compound III (10, 25, 50, 100 mg qd), 12 weeks, treated set, 8/8 (100%) of these SAEs in placebo arm): none
- change in intensity and occurrence of suicidal ideation compared to placebo [2, 3]: decrease
- change in psychiatric serious adverse events (hospitalization for serious worsening of schizophrenia symptoms) compared to placebo [2, 3]: statistically significant, clinically meaningful decrease
